Results published in PubChem BioAssay (NCI).
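Interpolation was linear, between the two tested concentrations surrounding the appropriate level; five concentrations were tested over 48 hours in 96-well plates. TGI denotes the concentration required for complete inhibition of growth.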

How the values were obtained:
Assay in all cases: growth of human tumour cells (NCI), 48 h
[1] = tested on: MDA-MB-435
[2] = tested on: SK-MEL-5 melanoma
[3] = tested on: 786-0 renal
[4] = tested on: OVCAR-8 ovarian
[5] = tested on: MDA-N
[6] = tested on: SNB-19 CNS
[7] = tested on: COLO 205 colon
[8] = tested on: DU-145 prostate
[9] = tested on: HCC-2998 colon
[10] = tested on: BT-549 breast
[11] = tested on: MALME-3M melanoma
[12] = tested on: MDA-MB-231 breast
[13] = tested on: NCI-H460 lung
[14] = tested on: NCI-H226 lung
[15] = tested on: HCT-116 colon
[16] = tested on: SN12C renal
[17] = tested on: RXF 393 renal

Compound | TGI [1] [µM] | TGI [2] [µM] | TGI [3] [µM] | TGI [4] [µM] | TGI [5] [µM] | TGI [6] [µM] | TGI [7] [µM] | TGI [8] [µM] | TGI [9] [µM] | TGI [10] [µM] | TGI [11] [µM] | TGI [12] [µM] | TGI [13] [µM] | TGI [14] [µM] | TGI [15] [µM] | TGI [16] [µM] | TGI [17] [µM]
COc1ccc2cc(NC(=O)Nn3cnnc3)ccc2c1 | > 100 | > 100 | > 100 | > 100 | > 100 | > 100 | > 100 | > 100 | > 100 | > 100 | > 100 | > 100 | > 100 | > 100 | > 100 | – | –
[N-]=[N+]=NCC(=O)c1c[nH]c(=O)[nH]c1=O | > 100 | > 100 | > 100 | > 100 | > 100 | > 100 | > 100 | > 100 | > 100 | > 100 | > 100 | > 100 | > 100 | > 100 | > 100 | > 100 | > 100
Cc1cc(N(C)C)ccc1N=Nc1ccc2ncccc2c1 | > 100 | 98.1 | > 100 | > 100 | > 100 | 94 | > 100 | > 100 | – | > 100 | > 100 | > 100 | > 100 | > 100 | > 100 | > 100 | > 100
CC(Cc1ccc(O)cn1)(NC(=O)c1ccccc1)C(=O)O (centres undefined) | > 100 | > 100 | > 100 | > 100 | > 100 | > 100 | > 100 | > 100 | > 100 | > 100 | > 100 | > 100 | > 100 | > 100 | > 100 | – | > 100
CO[C@@H]1C[C@H]2[C@@H]3CC[C@H]([C@@H](C)COC(C)=O)[C@@]3(C)CC[C@@H]2[C@@]2(C)CC[C@H]3C[C@]312 | 29.2 | 15.2 | 30.8 | 24.7 | 35.4 | 31.7 | 20.2 | 27.8 | 28.6 | 27.2 | 29.4 | 24.3 | 23.4 | 34.9 | 22.2 | 32.1 | 35.7
Cc1ccc(S(=O)(=O)NN=C2C(C)CC(C(C)(C)C)CC2C)cc1 (centres undefined) | 34.9 | 31.3 | 32.9 | 59.8 | 40.9 | 66 | 34.5 | 39.1 | 32.1 | 35.5 | 32.6 | 85.9 | 34.3 | 34.5 | 34.1 | 32.7 | –
C=CC(C)(C)c1c(OC)oc2ccc(OC)c(C)c2c1=O | > 100 | > 100 | > 100 | > 100 | > 100 | > 100 | > 100 | > 100 | > 100 | > 100 | > 100 | > 100 | > 100 | > 100 | > 100 | > 100 | –
COc1ccccc1NC(=S)NNC(=O)c1cc(-c2ccccc2)nc2ccccc12 | 18.5 | 19.8 | 32.8 | 49 | 7.78 | > 100 | 45.8 | 32 | 28.6 | 63.8 | 28.9 | 63.7 | 98 | 51.9 | 25.6 | 41.5 | 28.8
CC1NC(=O)c2c(-c3ccccc3)nn(-c3ccccc3)c2NC1=O (centres undefined) | > 100 | > 100 | > 100 | > 100 | > 100 | > 100 | > 100 | > 100 | > 100 | > 100 | > 100 | > 100 | > 100 | > 100 | > 100 | > 100 | > 100
Nc1ccc(-c2nnc(-c3c(Cl)c(Cl)c(Cl)c(Cl)c3-c3nc4ccc(C(=O)c5ccccc5)cc4[nH]3)o2)cc1 | 75.8 | 26.4 | 36.1 | > 100 | 19 | 67.4 | 50.2 | 90.5 | – | > 100 | > 100 | 55.4 | – | 41.2 | 56.9 | 37.7 | 43.2
COc1ccc(-c2nc(SCC(=O)N/N=C/c3ccc([N+](=O)[O-])cc3)[nH]c2-c2ccc(OC)cc2)cc1 | 12.2 | 19.9 | > 93.1 | > 100 | 12.9 | > 100 | 5.28 | > 100 | 31.5 | 51.3 | 50.8 | > 100 | 45.8 | – | 37.3 | 46.6 | 56.6
Cc1cc(C)c2c(=O)cc(-c3ccccc3)[nH]c2c1 | 41.6 | 30.6 | 11.4 | 46.9 | 3.17 | > 100 | > 52 | 98.4 | – | 54.2 | > 80.4 | 39.7 | 31.2 | 48.9 | 15.8 | > 65.3 | 5.11
O=C(c1ccccc1)c1ccc(N2C(=O)/C(=C/c3cccc([N+](=O)[O-])c3)N=C2c2ccccc2)c(N2C(=O)/C(=C/c3cccc([N+](=O)[O-])c3)N=C2c2ccccc2)c1 | 29.8 | 18.9 | > 100 | > 100 | 86.6 | > 100 | 11.1 | > 100 | 60.1 | > 100 | – | > 100 | > 100 | – | > 100 | > 100 | –
Clc1ccc(-c2cn3c(nc4ccccc43)c(/C=C/c3cccs3)n2)cc1 | > 100 | > 100 | > 100 | – | > 100 | > 100 | > 100 | > 100 | > 100 | > 100 | > 100 | > 100 | > 100 | > 100 | > 100 | > 100 | > 100
Oc1c(Nc2ccccc2)cc2c3c1N=NC=3CCN=2 | 31 | 33.1 | > 100 | 59.8 | 31.7 | > 100 | > 100 | > 100 | > 100 | > 100 | 29.1 | > 100 | > 100 | – | 44.4 | > 100 | > 100
COc1cc(/C=C2\N=C(c3ccccc3)N(c3ccc4c(c3)Sc3cc(N5C(=O)/C(=C/c6cc(OC)c(OC)c(OC)c6)N=C5c5ccccc5)ccc3N4)C2=O)cc(OC)c1OC | 33.6 | 30.1 | 40.9 | 37.9 | 37.9 | 39.8 | 47.4 | > 100 | 50.6 | 55.6 | 41.1 | 67.8 | > 100 | – | > 100 | 51 | 46.1
CCOC(=O)c1ccc(N(C)Cc2cnc3nc(N)nc(N)c3n2)cc1 | > 100 | > 100 | > 100 | 29.2 | > 100 | > 100 | > 100 | > 100 | – | > 100 | 51.1 | 81.7 | > 100 | 41.8 | > 100 | > 100 | 33
Cc1ccc(C)n1-n1c(Cc2ccc(Cl)cc2)n[nH]c1=O | > 100 | > 100 | > 100 | > 100 | > 100 | > 100 | > 100 | > 100 | – | > 100 | > 100 | > 100 | > 100 | > 100 | > 100 | > 100 | > 100
CNC(=S)N/N=C(\C)c1cc(OC)c(OC)cc1O | > 100 | > 100 | > 100 | > 100 | > 100 | > 100 | > 100 | > 100 | > 100 | > 100 | > 100 | > 100 | > 100 | – | > 100 | > 100 | > 100
O=C(OC1C#CCSCC#C/C=C\1)c1cnc2ccccc2n1 (centres undefined) | > 100 | – | 26.3 | > 100 | > 100 | > 100 | 30.8 | > 100 | > 100 | > 100 | > 100 | > 100 | 33.7 | > 100 | > 100 | > 100 | > 100
CCCc1c(O)c2ccccc2[nH]c1=O | > 100 | > 100 | > 100 | > 100 | > 100 | > 100 | > 100 | > 100 | > 100 | > 100 | > 100 | > 100 | > 100 | > 100 | > 100 | > 100 | –
NC(=S)Nc1c(S(N)(=O)=O)cc(S(N)(=O)=O)c(Cl)c1Cl | > 100 | > 100 | > 100 | > 100 | > 100 | > 100 | > 100 | > 100 | – | > 100 | > 100 | > 100 | – | > 100 | > 100 | > 100 | > 100
O=c1cc(CN2CCCCC2)[nH]c2c1ccc1nc(CN3CCCCC3)cc(=O)n12 | > 100 | > 100 | > 100 | > 100 | > 100 | > 100 | > 100 | > 100 | > 100 | > 100 | – | > 100 | > 100 | > 100 | > 100 | > 100 | > 100
O=C(Nn1c(-c2ccccc2)nc2ccccc2c1=O)c1ccc([N+](=O)[O-])cc1 | > 100 | > 100 | > 100 | > 100 | > 100 | > 100 | > 100 | > 100 | > 100 | > 100 | > 100 | > 100 | > 100 | > 100 | – | > 100 | > 100
COc1ccc(/C=C2\N=C(N3CCOCC3)NC2=O)cc1 | > 100 | – | > 100 | > 100 | > 100 | > 100 | > 100 | > 100 | > 100 | > 100 | > 100 | > 100 | – | > 100 | > 100 | > 100 | > 100
C/C(CC(O)(C(F)(F)Cl)C(F)(F)Cl)=N\Nc1ccccc1 | > 100 | 36.9 | > 100 | > 100 | > 100 | > 100 | > 100 | > 100 | – | > 100 | > 100 | > 100 | > 100 | 89.1 | > 100 | – | 47.6
CCOC(=O)C(=NN(C)c1ncccc1N)C(=O)OCC | 44.5 | > 100 | 87.2 | > 100 | > 100 | > 100 | 29 | > 100 | – | > 100 | 59.7 | 83.3 | > 100 | 47.6 | 65.4 | 64.5 | > 100
COc1cc(S(=O)(=O)Nc2ccc(-c3csc(/N=C\c4ccccc4O)n3)cc2)ccc1Cl | > 100 | > 100 | > 100 | > 100 | > 100 | > 100 | > 100 | > 100 | – | > 100 | > 100 | > 100 | – | > 100 | > 100 | > 100 | > 100
